In EP4722207A1, “OXOISOINDOLINYL-SUBSTITUTED TETRAHYDROPYRIMIDINEDIONE DERIVATIVE AND USE THEREOF” (Gluetacs Therapeutics (Shanghai) Co., Ltd., priority 2023, dated 2024):

Experiments:
Type in all cases: cell-based
WEE1 = target: T1, WEE1 (Homo sapiens, UniProt P30291+Q96SW2); experiment: Western-blot assay, substrate protein degradation in hPBMCs: WEE1; conditions: for WEE1 substrate protein remaining %: compounds at 50 nM and 500 nM, 24 hours; for substrate protein remaining % WEE1: 24 hours of compound treatment, 50 nM and 500 nM
T1 construct: effects of the compounds of the present disclosure on the expression of target proteins in cells; endogenous in cells; host or cells: human PBMCs (hPBMCs)

IKZF1 = target: T2, IKZF1 (Homo sapiens, UniProt Q13422+Q96SW2); experiment: Western-blot assay, substrate protein degradation in hPBMCs: IKZF1; conditions: for IKZF1 substrate protein remaining %: compounds at 50 nM and 500 nM, 24 hours; for substrate protein remaining % IKZF1: 24 hours of compound treatment, 50 nM and 500 nM
T2 construct: effects of the compounds of the present disclosure on the expression of target proteins in cells; endogenous in cells; host or cells: human PBMCs (hPBMCs)

IKZF2 = target: T3, IKZF2 (Homo sapiens, UniProt Q96SW2+Q9UKS7); experiment: Western-blot assay, substrate protein degradation in hPBMCs: IKZF2; conditions: for IKZF2 substrate protein remaining %: compounds at 50 nM and 500 nM, 24 hours; for substrate protein remaining % IKZF2: 24 hours of compound treatment, 50 nM and 500 nM
T3 construct: effects of the compounds of the present disclosure on the expression of target proteins in cells; endogenous in cells; host or cells: human PBMCs (hPBMCs)

IKZF3 = target: T4, IKZF3 (Homo sapiens, UniProt Q96SW2+Q9UKT9); experiment: Western-blot assay, substrate protein degradation in hPBMCs: IKZF3; conditions: for IKZF3 substrate protein remaining %: compounds at 50 nM and 500 nM, 24 hours; for substrate protein remaining % IKZF3: 24 hours of compound treatment, 50 nM and 500 nM
T4 construct: effects of the compounds of the present disclosure on the expression of target proteins in cells; endogenous in cells; host or cells: human PBMCs (hPBMCs)

CK1α = target: T5, CK1α (Homo sapiens, UniProt P48729+Q96SW2); experiment: Western-blot assay, substrate protein degradation in hPBMCs: CK1α; conditions: for CK1α substrate protein remaining %: compounds at 50 nM and 500 nM, 24 hours; for substrate protein remaining % CK1α: 24 hours of compound treatment, 50 nM and 500 nM
T5 construct: effects of the compounds of the present disclosure on the expression of target proteins in cells; endogenous in cells; host or cells: human PBMCs (hPBMCs)

GSPT1 = target: T6, GSPT1 (Homo sapiens, UniProt P15170+Q96SW2); experiment: Western-blot assay, substrate protein degradation in hPBMCs: GSPT1; conditions: for GSPT1 substrate protein remaining %: compounds at 50 nM and 500 nM, 24 hours; for substrate protein remaining % GSPT1: 24 hours of compound treatment, 50 nM and 500 nM
T6 construct: effects of the compounds of the present disclosure on the expression of target proteins in cells; endogenous in cells; host or cells: human PBMCs (hPBMCs)
T6 sequence (P15170 whole entry): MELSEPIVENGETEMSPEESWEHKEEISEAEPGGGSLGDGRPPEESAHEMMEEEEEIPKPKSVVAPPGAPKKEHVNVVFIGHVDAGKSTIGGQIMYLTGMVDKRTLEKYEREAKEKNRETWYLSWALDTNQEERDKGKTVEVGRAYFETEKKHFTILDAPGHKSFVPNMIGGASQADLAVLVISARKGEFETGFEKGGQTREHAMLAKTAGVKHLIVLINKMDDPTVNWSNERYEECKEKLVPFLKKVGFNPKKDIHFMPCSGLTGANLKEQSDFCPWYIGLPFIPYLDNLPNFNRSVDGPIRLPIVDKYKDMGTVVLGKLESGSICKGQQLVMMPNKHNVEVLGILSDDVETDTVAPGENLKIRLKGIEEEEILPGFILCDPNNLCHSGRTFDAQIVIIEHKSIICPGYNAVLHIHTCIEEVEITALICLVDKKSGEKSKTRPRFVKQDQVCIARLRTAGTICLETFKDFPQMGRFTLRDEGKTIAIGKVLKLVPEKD
T6 sequence (Q96SW2 whole entry): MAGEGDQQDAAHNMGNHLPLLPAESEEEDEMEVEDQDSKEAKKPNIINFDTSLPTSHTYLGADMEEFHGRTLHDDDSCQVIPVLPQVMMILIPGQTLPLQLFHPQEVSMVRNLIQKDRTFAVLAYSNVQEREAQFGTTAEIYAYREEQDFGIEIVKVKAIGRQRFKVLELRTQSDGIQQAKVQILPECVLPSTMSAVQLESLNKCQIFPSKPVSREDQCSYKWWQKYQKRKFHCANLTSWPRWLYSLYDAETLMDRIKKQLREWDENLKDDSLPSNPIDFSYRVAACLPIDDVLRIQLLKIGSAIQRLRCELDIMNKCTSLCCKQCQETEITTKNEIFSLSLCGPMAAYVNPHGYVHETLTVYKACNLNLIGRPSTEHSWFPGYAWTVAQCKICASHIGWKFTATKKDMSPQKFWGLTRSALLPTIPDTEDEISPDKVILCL
T6 sequence (Q16531 whole entry partner): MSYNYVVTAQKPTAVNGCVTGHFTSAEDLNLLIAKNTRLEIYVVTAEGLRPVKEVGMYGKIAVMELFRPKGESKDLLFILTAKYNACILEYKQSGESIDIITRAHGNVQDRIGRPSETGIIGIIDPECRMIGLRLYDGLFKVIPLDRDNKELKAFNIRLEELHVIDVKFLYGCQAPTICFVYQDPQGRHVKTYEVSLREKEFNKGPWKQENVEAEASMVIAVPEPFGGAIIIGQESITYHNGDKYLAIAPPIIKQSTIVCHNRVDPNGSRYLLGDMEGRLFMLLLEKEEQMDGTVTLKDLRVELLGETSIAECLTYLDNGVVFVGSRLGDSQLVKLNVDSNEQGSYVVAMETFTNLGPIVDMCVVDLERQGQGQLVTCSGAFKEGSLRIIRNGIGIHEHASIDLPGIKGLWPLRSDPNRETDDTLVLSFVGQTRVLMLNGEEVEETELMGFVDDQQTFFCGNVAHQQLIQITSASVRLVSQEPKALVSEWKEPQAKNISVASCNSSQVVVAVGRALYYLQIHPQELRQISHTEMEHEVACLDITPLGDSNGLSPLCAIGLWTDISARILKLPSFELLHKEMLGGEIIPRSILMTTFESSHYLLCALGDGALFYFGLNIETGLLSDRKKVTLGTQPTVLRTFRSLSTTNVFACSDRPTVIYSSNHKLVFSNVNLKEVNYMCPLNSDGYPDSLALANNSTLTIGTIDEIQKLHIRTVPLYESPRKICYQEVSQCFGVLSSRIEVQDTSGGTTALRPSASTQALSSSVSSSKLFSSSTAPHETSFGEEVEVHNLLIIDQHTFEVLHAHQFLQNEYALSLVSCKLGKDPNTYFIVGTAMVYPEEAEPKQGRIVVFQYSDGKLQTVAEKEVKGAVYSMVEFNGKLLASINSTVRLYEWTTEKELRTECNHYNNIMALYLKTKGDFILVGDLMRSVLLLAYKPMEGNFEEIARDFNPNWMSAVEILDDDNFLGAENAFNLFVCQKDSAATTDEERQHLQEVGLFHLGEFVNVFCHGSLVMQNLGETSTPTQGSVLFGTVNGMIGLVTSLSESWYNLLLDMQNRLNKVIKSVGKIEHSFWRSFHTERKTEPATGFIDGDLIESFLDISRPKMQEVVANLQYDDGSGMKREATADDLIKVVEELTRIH

T4 sequence (Q9UKT9 whole entry): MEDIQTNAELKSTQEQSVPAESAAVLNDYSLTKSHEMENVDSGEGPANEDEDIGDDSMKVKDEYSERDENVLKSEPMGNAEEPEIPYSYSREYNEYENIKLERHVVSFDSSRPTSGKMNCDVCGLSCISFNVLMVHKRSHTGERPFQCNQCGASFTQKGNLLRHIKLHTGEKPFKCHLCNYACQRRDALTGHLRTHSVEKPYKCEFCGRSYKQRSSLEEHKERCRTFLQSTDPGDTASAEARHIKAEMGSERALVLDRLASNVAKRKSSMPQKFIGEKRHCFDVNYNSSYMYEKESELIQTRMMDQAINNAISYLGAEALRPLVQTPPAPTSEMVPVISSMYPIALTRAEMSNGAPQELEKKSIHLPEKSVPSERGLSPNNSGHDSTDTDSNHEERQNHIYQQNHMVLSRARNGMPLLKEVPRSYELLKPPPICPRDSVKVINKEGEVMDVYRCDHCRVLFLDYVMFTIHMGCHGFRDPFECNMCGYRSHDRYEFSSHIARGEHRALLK
T4 sequence (Q96SW2 whole entry): as the sequence (Q96SW2 whole entry) above
T4 sequence (Q16531 whole entry partner): as the sequence (Q16531 whole entry partner) above
T2 sequence (Q13422 whole entry): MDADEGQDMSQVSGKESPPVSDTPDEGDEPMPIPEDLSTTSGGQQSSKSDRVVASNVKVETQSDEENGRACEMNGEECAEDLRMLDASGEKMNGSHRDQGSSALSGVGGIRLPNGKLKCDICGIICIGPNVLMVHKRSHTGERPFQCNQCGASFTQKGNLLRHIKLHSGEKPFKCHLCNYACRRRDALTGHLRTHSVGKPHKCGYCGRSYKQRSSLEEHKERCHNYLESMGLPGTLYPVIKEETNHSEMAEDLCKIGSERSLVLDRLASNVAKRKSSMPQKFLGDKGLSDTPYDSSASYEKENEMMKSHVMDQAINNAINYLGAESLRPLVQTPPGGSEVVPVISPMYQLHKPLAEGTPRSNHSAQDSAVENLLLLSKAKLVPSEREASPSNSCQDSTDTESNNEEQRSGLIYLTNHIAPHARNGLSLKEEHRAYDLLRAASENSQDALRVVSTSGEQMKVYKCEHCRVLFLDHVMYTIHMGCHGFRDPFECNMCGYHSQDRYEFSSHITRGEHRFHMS
T2 sequence (Q96SW2 whole entry): as the sequence (Q96SW2 whole entry) above
T2 sequence (Q16531 whole entry partner): as the sequence (Q16531 whole entry partner) above
T3 sequence (Q9UKS7 whole entry): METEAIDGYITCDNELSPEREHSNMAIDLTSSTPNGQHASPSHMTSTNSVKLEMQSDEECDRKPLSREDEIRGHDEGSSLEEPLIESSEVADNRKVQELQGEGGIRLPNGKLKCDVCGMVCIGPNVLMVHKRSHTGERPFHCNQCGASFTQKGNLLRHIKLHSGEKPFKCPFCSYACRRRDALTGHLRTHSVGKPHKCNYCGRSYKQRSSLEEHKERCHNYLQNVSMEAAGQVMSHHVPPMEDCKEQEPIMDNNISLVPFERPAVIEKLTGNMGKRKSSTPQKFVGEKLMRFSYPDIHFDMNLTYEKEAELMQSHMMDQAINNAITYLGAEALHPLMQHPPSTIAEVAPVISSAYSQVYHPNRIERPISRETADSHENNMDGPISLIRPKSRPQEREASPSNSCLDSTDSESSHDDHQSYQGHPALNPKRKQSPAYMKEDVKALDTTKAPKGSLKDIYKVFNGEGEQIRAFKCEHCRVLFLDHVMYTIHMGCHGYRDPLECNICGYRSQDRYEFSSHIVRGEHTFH
T3 sequence (Q96SW2 whole entry): as the sequence (Q96SW2 whole entry) above
T3 sequence (Q16531 whole entry partner): as the sequence (Q16531 whole entry partner) above
T1 sequence (P30291 whole entry): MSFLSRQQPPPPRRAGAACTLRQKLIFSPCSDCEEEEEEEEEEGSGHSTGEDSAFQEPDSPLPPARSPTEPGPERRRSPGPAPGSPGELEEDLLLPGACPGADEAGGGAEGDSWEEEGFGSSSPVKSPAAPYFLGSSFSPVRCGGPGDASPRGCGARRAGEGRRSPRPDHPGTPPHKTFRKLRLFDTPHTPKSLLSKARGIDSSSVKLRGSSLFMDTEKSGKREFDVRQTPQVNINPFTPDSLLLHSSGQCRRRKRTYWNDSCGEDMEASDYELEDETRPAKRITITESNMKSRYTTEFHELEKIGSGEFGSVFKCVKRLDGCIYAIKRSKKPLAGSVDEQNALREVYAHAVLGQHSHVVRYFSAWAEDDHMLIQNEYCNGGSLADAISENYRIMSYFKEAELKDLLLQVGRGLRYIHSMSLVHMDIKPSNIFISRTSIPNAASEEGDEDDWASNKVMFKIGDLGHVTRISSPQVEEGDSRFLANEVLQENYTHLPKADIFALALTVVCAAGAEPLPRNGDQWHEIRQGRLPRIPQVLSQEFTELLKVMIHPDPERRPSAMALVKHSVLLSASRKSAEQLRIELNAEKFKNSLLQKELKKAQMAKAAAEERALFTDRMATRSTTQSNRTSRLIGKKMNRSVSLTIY
T1 sequence (Q96SW2 whole entry): as the sequence (Q96SW2 whole entry) above
T1 sequence (Q16531 whole entry partner): as the sequence (Q16531 whole entry partner) above

Row | Structure (SMILES) | WEE1 substrate protein remaining % (WEE1) | IKZF1 substrate protein remaining % (IKZF1) | IKZF2 substrate protein remaining % (IKZF2) | IKZF3 substrate protein remaining % (IKZF3) | CK1α substrate protein remaining % (CK1α) | GSPT1 substrate protein remaining % (GSPT1) | substrate protein remaining % WEE1 (WEE1) | substrate protein remaining % IKZF1 (IKZF1) | substrate protein remaining % IKZF2 (IKZF2) | substrate protein remaining % IKZF3 (IKZF3) | substrate protein remaining % CK1α (CK1α) | substrate protein remaining % GSPT1 (GSPT1)
1 | O=C1CCN(N2Cc3cc(CN4CCN(c5cc(Cl)ccn5)CC4)ccc3C2=O)C(=O)N1 [GT-05128, 1-(5-((4-(4-chloropyridin-2-yl)piperazin-1-yl)methyl)-1-oxoisoindolin-2-yl)dihydropyrimidine-2,4(1H,3H)-dione] | A ("A" is defined as 0% ≤ substrate protein remaining % ≤ 80%) | A ("A" is defined as 0% ≤ substrate protein remaining % ≤ 80%) | A ("A" is defined as 0% ≤ substrate protein remaining % ≤ 80%) | A ("A" is defined as 0% ≤ substrate protein remaining % ≤ 80%) | A ("A" is defined as 0% ≤ substrate protein remaining % ≤ 80%) | A ("A" is defined as 0% ≤ substrate protein remaining % ≤ 80%) |  |  |  |  |  | 
2 | O=C1CCN(N2C(=O)c3ccc(CN4CCN(CC5=C(c6ccc(F)cc6)CCCC5)CC4)cc3C2=O)C(=O)N1 [GT-07302, 2-(2,4-dioxotetrahydropyrimidin-1(2H)-yl)-5-((4-((4'-fluoro-3,4,5,6-tetrahydro-[1,1'-biphenyl]-2-yl)methyl)piperazin-1-yl)methyl)isoindoline-1,3-dione] |  |  |  |  |  |  | A (0% ≤ substrate protein remaining % ≤ 80%) | B (80%< substrate protein remaining %≤ 100%) | B (80%< substrate protein remaining %≤ 100%) | B (80%< substrate protein remaining %≤ 100%) | B (80%< substrate protein remaining %≤ 100%) | B (80%< substrate protein remaining %≤ 100%)
3 | O=C1CCN(N2C(=O)c3ccc(CN4CCC(c5cccc(F)c5Cl)CC4)cc3C2=O)C(=O)N1 [GT-06895, 5-((4-(2-chloro-3-fluorophenyl)piperidin-1-yl)methyl)-2-(2,4-dioxotetrahydropyrimidin-1(2H)-yl)isoindoline-1,3-dione] | B ("B" is defined as 80%< substrate protein remaining %≤ 100%) | A ("A" is defined as 0% ≤ substrate protein remaining % ≤ 80%) | B ("B" is defined as 80%< substrate protein remaining %≤ 100%) | B ("B" is defined as 80%< substrate protein remaining %≤ 100%) | B ("B" is defined as 80%< substrate protein remaining %≤ 100%) | B ("B" is defined as 80%< substrate protein remaining %≤ 100%) |  |  |  |  |  | 
4 | O=C1CCN(N2C(=O)c3ccc(CN4CCN(C(c5ccccc5)c5ccccc5)CC4)cc3C2=O)C(=O)N1 [GT-05267, 5-((4-benzhydrylpiperazin-1-yl)methyl)-2-(2,4-dioxotetrahydropyrimidin-1(2H)-yl)isoindoline-1,3-dione] | B ("B" is defined as 80%< substrate protein remaining %≤ 100%) | B ("B" is defined as 80%< substrate protein remaining %≤ 100%) | B ("B" is defined as 80%< substrate protein remaining %≤ 100%) | A ("A" is defined as 0% ≤ substrate protein remaining % ≤ 80%) | A ("A" is defined as 0% ≤ substrate protein remaining % ≤ 80%) | A ("A" is defined as 0% ≤ substrate protein remaining % ≤ 80%) |  |  |  |  |  | 
5 | O=C1CCN(N2C(=O)c3ccc(CN4CCN(c5cnnc(Cl)c5Cl)CC4)cc3C2=O)C(=O)N1 [GT-07035, 5-((4-(5,6-dichloropyridazin-4-yl)piperazin-1-yl)methyl)-2-(2,4-dioxotetrahydropyrimidin-1(2H)-yl)isoindoline-1,3-dione] | B ("B" is defined as 80%< substrate protein remaining %≤ 100%) | B ("B" is defined as 80%< substrate protein remaining %≤ 100%) | B ("B" is defined as 80%< substrate protein remaining %≤ 100%) | A ("A" is defined as 0% ≤ substrate protein remaining % ≤ 80%) | A ("A" is defined as 0% ≤ substrate protein remaining % ≤ 80%) | A ("A" is defined as 0% ≤ substrate protein remaining % ≤ 80%) |  |  |  |  |  | 
6 | O=C1CCN(N2C(=O)c3ccc(CN4CCC(c5ccccc5C(F)(F)F)CC4)cc3C2=O)C(=O)N1 [GT-06879, 2-(2,4-dioxotetrahydropyrimidin-1(2H)-yl)-5-((4-(2-(trifluoromethyl)phenyl)piperidin-1-yl)methyl)isoindoline-1,3-dione] | B ("B" is defined as 80%< substrate protein remaining %≤ 100%) | B ("B" is defined as 80%< substrate protein remaining %≤ 100%) | B ("B" is defined as 80%< substrate protein remaining %≤ 100%) | B ("B" is defined as 80%< substrate protein remaining %≤ 100%) | B ("B" is defined as 80%< substrate protein remaining %≤ 100%) | A ("A" is defined as 0% ≤ substrate protein remaining % ≤ 80%) |  |  |  |  |  | 
7 | O=C1CCN(N2C(=O)c3ccc(CN4CCN(c5cccc(Br)c5)CC4)cc3C2=O)C(=O)N1 [GT-06722, 5-((4-(3-bromophenyl)piperazin-1-yl)methyl)-2-(2,4-dioxotetrahydropyrimidin-1(2H)-yl)isoindoline-1,3-dione] | A ("A" is defined as 0% ≤ substrate protein remaining % ≤ 80%) | A ("A" is defined as 0% ≤ substrate protein remaining % ≤ 80%) | B ("B" is defined as 80%< substrate protein remaining %≤ 100%) | A ("A" is defined as 0% ≤ substrate protein remaining % ≤ 80%) | A ("A" is defined as 0% ≤ substrate protein remaining % ≤ 80%) | B ("B" is defined as 80%< substrate protein remaining %≤ 100%) |  |  |  |  |  | 
8 | O=C1CCN(N2Cc3cc(CN4CCC(c5ccon5)CC4)ccc3C2=O)C(=O)N1 [GT-07495, 1-(5-((4-(isoxazol-3-yl)piperidin-1-yl)methyl)-1-oxoisoindolin-2-yl)dihydropyrimidine-2,4(1H,3H)-dione] |  |  |  |  |  |  | B (80%< substrate protein remaining %≤ 100%) | B (80%< substrate protein remaining %≤ 100%) | B (80%< substrate protein remaining %≤ 100%) | B (80%< substrate protein remaining %≤ 100%) | A (0% ≤ substrate protein remaining % ≤ 80%) | A (0% ≤ substrate protein remaining % ≤ 80%)
9 | CC1(C)CCC(CN2CC3CC(C2)N3Cc2ccc3c(c2)C(=O)N(N2CCC(=O)NC2=O)C3=O)=C(c2ccc(Cl)cc2)C1 [GT-06457, 5-((3-((4'-chloro-5,5-dimethyl-3,4,5,6-tetrahydro-[1,1'-biphenyl]-2-yl)methyl)-3,6-diazabicyclo[3.1.1]heptan-6-yl)methyl)-2-(2,4-dioxotetrahydropyrimidin-1(2H)-yl)isoindoline-1,3-dione] | A ("A" is defined as 0% ≤ substrate protein remaining % ≤ 80%) | A ("A" is defined as 0% ≤ substrate protein remaining % ≤ 80%) | A ("A" is defined as 0% ≤ substrate protein remaining % ≤ 80%) | A ("A" is defined as 0% ≤ substrate protein remaining % ≤ 80%) | A ("A" is defined as 0% ≤ substrate protein remaining % ≤ 80%) | A ("A" is defined as 0% ≤ substrate protein remaining % ≤ 80%) |  |  |  |  |  | 
10 | O=C1CCN(N2C(=O)c3ccc(CN4CC=C(c5cccc(Cl)c5Cl)CC4)cc3C2=O)C(=O)N1 [GT-05249, 5-((4-(2,3-dichlorophenyl)-3,6-dihydropyridin-1(2H)-yl)methyl)-2-(2,4-dioxotetrahydropyrimidin-1(2H)-yl)isoindoline-1,3-dione] | B ("B" is defined as 80%< substrate protein remaining %≤ 100%) | A ("A" is defined as 0% ≤ substrate protein remaining % ≤ 80%) | B ("B" is defined as 80%< substrate protein remaining %≤ 100%) | B ("B" is defined as 80%< substrate protein remaining %≤ 100%) | B ("B" is defined as 80%< substrate protein remaining %≤ 100%) | A ("A" is defined as 0% ≤ substrate protein remaining % ≤ 80%) |  |  |  |  |  | 
